In patent US12077503B2, “Substituted cyclic amides and their use as herbicides” (FMC CORPORATION, priority 2015, dated 2024):

Experiments:
Type in all cases: in vivo
corn (Zea mays) [1] = assay: Test G Pre-Emergence Protocol; details: Zea mays, pre-emergence, 312 h, evaluated after 13 days; for plant injury at 15.625 g/ha: 15.625 g ai/ha; for plant injury at 15.625 g/ha / plant injury at 250 g/ha: read-out: Corn damage rating (100=total damage to plant; 0=no damage to plant); for plant injury at 62.5 g/ha: 62.5 g ai/ha, 100=total damage to plant, 0=no damage to plant, read-out: plant damage rating, Corn; for plant injury at 250 g/ha: 250 g ai/ha
Method in brief: (§1)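 Herbicidal effect was rated 13 days post-application on a scale where 100 equals total damage. Spraying took place the day after sowing, using 15.625, 62.5 or 250 g/ha of compound in a 50:50 acetone/water solution with 0.5% Tween 20.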

[2] = test system: giant foxtail (Setaria faberi); assay: Test G Pre-Emergence Protocol; details: Setaria faberi, pre-emergence, 312 h, evaluated after 13 days; for pest or weed control at 15.625 g/ha: 15.625 g ai/ha; for pest or weed control at 15.625 g/ha / pest or weed control at 250 g/ha: read-out: Foxtail, Giant damage rating (100=total damage to plant; 0=no damage to plant); for pest or weed control at 62.5 g/ha: 62.5 g ai/ha, 100=total damage to plant, 0=no damage to plant, read-out: plant damage rating, Foxtail, Giant; for pest or weed control at 250 g/ha: 250 g ai/ha
Method in brief: as §1

[3] = test system: barnyardgrass (Echinochloa crus-galli); assay: Test G Pre-Emergence Protocol; details: Echinochloa crus-galli, pre-emergence, 312 h, evaluated after 13 days; for pest or weed control at 15.625 g/ha: 15.625 g ai/ha, read-out: Barnyard grass damage rating (100=total damage to plant; 0=no damage to plant); for pest or weed control at 62.5 g/ha: 62.5 g ai/ha, 100=total damage to plant, 0=no damage to plant, read-out: plant damage rating, Barnyardgrass; for pest or weed control at 250 g/ha: 250 g ai/ha, read-out: Barnyardgrass damage rating (100=total damage to plant; 0=no damage to plant)
Method in brief: as §1

[4] = test system: velvetleaf (Abutilon theophrasti); assay: Test G Pre-Emergence Protocol; details: Abutilon theophrasti, pre-emergence, 312 h, evaluated after 13 days; for pest or weed control at 15.625 g/ha: 15.625 g ai/ha; for pest or weed control at 15.625 g/ha / pest or weed control at 250 g/ha: read-out: Velvetleaf damage rating (100=total damage to plant; 0=no damage to plant); for pest or weed control at 62.5 g/ha: 62.5 g ai/ha, 100=total damage to plant, 0=no damage to plant, read-out: plant damage rating, Velvetleaf; for pest or weed control at 250 g/ha: 250 g ai/ha
Method in brief: as §1

[5] = test system: redroot pigweed (Amaranthus retroflexus); assay: Test G Pre-Emergence Protocol; details: Amaranthus retroflexus, pre-emergence, 312 h, evaluated after 13 days; for pest or weed control at 15.625 g/ha: 15.625 g ai/ha; for pest or weed control at 15.625 g/ha / pest or weed control at 250 g/ha: read-out: Pigweed, Redroot damage rating (100=total damage to plant; 0=no damage to plant); for pest or weed control at 62.5 g/ha: 62.5 g ai/ha, 100=total damage to plant, 0=no damage to plant, read-out: plant damage rating, Pigweed, Redroot; for pest or weed control at 250 g/ha: 250 g ai/ha
Method in brief: as §1

[6] = test system: ivy-leaved morning glory (Ipomoea hederacea); assay: Test G Pre-Emergence Protocol; details: Ipomoea, pre-emergence, 312 h, evaluated after 13 days; for pest or weed control at 15.625 g/ha: 15.625 g ai/ha, read-out: Morning-glory, Ivy-leaved damage rating (100=total damage to plant; 0=no damage to plant); for pest or weed control at 62.5 g/ha: 62.5 g ai/ha, 100=total damage to plant, 0=no damage to plant, read-out: plant damage rating, Morningglory, Ivy-leaved; for pest or weed control at 250 g/ha: 250 g ai/ha, read-out: Morningglory, Ivy-leaved damage rating (100=total damage to plant; 0=no damage to plant)
Method in brief: as §1

corn (Zea mays) [7] = assay: Test G Post-Emergence Protocol; details: Zea mays, post-emergence, 312 h; for plant injury at 15.625 g/ha: 15.625 g ai/ha, evaluated after 13 days (100=total damage to plant; 0=no damage to plant), read-out: Corn damage rating; for plant injury at 62.5 g/ha: 62.5 g ai/ha, read-out: Corn damage rating (100=total damage to plant; 0=no damage to plant); for plant injury at 62.5 g/ha / plant injury at 250 g/ha: evaluated after 13 days; for plant injury at 250 g/ha: 250 g ai/ha, read-out: damage to plant, Corn (100=total damage to plant; 0=no damage to plant)
Method in brief: (§2)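 Seedlings grown 8 days in soil in a glasshouse (24/16 °C day/night, 14 h light, 65% humidity) were sprayed post-emergence with compound in acetone/water 50:50 plus 0.5% Tween 20 at 15.625, 62.5 or 250 g/ha. Damage was scored after 13 days on a 0–100 scale (100 = total damage).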

[8] = test system: giant foxtail (Setaria faberi); assay: Test G Post-Emergence Protocol; details: Setaria faberi, post-emergence, 312 h; for pest or weed control at 15.625 g/ha: 15.625 g ai/ha, evaluated after 13 days (100=total damage to plant; 0=no damage to plant), read-out: Foxtail, Giant damage rating; for pest or weed control at 62.5 g/ha: 62.5 g ai/ha, read-out: Foxtail, Giant damage rating (100=total damage to plant; 0=no damage to plant); for pest or weed control at 62.5 g/ha / pest or weed control at 250 g/ha: evaluated after 13 days; for pest or weed control at 250 g/ha: 250 g ai/ha, read-out: damage to plant, Foxtail, Giant (100=total damage to plant; 0=no damage to plant)
Method in brief: as §2

[9] = test system: barnyardgrass (Echinochloa crus-galli); assay: Test G Post-Emergence Protocol; details: Echinochloa crus-galli, post-emergence, 312 h; for pest or weed control at 15.625 g/ha: 15.625 g ai/ha, evaluated after 13 days (100=total damage to plant; 0=no damage to plant), read-out: Barnyardgrass damage rating; for pest or weed control at 62.5 g/ha: 62.5 g ai/ha, read-out: Barnyardgrass damage rating (100=total damage to plant; 0=no damage to plant); for pest or weed control at 62.5 g/ha / pest or weed control at 250 g/ha: evaluated after 13 days; for pest or weed control at 250 g/ha: 250 g ai/ha, read-out: damage to plant, Barnyardgrass (100=total damage to plant; 0=no damage to plant)
Method in brief: as §2

[10] = test system: velvetleaf (Abutilon theophrasti); assay: Test G Post-Emergence Protocol; details: Abutilon theophrasti, post-emergence, 312 h; for pest or weed control at 15.625 g/ha: 15.625 g ai/ha, evaluated after 13 days (100=total damage to plant; 0=no damage to plant), read-out: Velvetleaf damage rating; for pest or weed control at 62.5 g/ha: 62.5 g ai/ha, read-out: Velvetleaf damage rating (100=total damage to plant; 0=no damage to plant); for pest or weed control at 62.5 g/ha / pest or weed control at 250 g/ha: evaluated after 13 days; for pest or weed control at 250 g/ha: 250 g ai/ha, read-out: damage to plant, Velvetleaf (100=total damage to plant; 0=no damage to plant)
Method in brief: as §2

[11] = test system: redroot pigweed (Amaranthus retroflexus); assay: Test G Post-Emergence Protocol; details: Amaranthus retroflexus, post-emergence, 312 h; for pest or weed control at 15.625 g/ha: 15.625 g ai/ha, evaluated after 13 days (100=total damage to plant; 0=no damage to plant), read-out: Pigweed, Redroot damage rating; for pest or weed control at 62.5 g/ha: 62.5 g ai/ha, read-out: Pigweed, Redroot damage rating (100=total damage to plant; 0=no damage to plant); for pest or weed control at 62.5 g/ha / pest or weed control at 250 g/ha: evaluated after 13 days; for pest or weed control at 250 g/ha: 250 g ai/ha, read-out: damage to plant, Pigweed, Redroot (100=total damage to plant; 0=no damage to plant)
Method in brief: as §2

[12] = test system: ivy-leaved morning glory (Ipomoea hederacea); assay: Test G Post-Emergence Protocol; details: Ipomoea, post-emergence, 312 h; for pest or weed control at 15.625 g/ha: 15.625 g ai/ha, evaluated after 13 days (100=total damage to plant; 0=no damage to plant), read-out: Morningglory, Ivy-leaved damage rating; for pest or weed control at 62.5 g/ha: 62.5 g ai/ha, read-out: Morningglory, Ivy-leaved damage rating (100=total damage to plant; 0=no damage to plant); for pest or weed control at 62.5 g/ha / pest or weed control at 250 g/ha: evaluated after 13 days; for pest or weed control at 250 g/ha: 250 g ai/ha, read-out: damage to plant, Morningglory, Ivy-leaved (100=total damage to plant; 0=no damage to plant)
Method in brief: as §2

CN1C[C@@H](c2ccc(C(F)(F)F)cc2)[C@H](C(=O)Nc2cccnn2)C1=O (racemic) [Compound 1577]
0%: plant injury at 15.625 g/ha (corn (Zea mays) [1]) | plant injury at 62.5 g/ha (corn (Zea mays) [1]) | plant injury at 250 g/ha (corn (Zea mays) [1]) | pest or weed control at 15.625 g/ha [2] | pest or weed control at 62.5 g/ha [2] | pest or weed control at 250 g/ha [2] | pest or weed control at 15.625 g/ha [3] | pest or weed control at 62.5 g/ha [3] | pest or weed control at 250 g/ha [3] | pest or weed control at 15.625 g/ha [4] | pest or weed control at 62.5 g/ha [4] | pest or weed control at 250 g/ha [4] | pest or weed control at 15.625 g/ha [5] | pest or weed control at 62.5 g/ha [5] | pest or weed control at 250 g/ha [5] | pest or weed control at 15.625 g/ha [6] | pest or weed control at 62.5 g/ha [6] | pest or weed control at 250 g/ha [6] | plant injury at 15.625 g/ha (corn (Zea mays) [7]) | plant injury at 62.5 g/ha (corn (Zea mays) [7]) | plant injury at 250 g/ha (corn (Zea mays) [7]) | pest or weed control at 15.625 g/ha [8] | pest or weed control at 62.5 g/ha [8] | pest or weed control at 250 g/ha [8] | pest or weed control at 15.625 g/ha [9] | pest or weed control at 62.5 g/ha [9] | pest or weed control at 250 g/ha [9] | pest or weed control at 15.625 g/ha [10] | pest or weed control at 62.5 g/ha [10] | pest or weed control at 250 g/ha [10] | pest or weed control at 15.625 g/ha [11] | pest or weed control at 62.5 g/ha [11] | pest or weed control at 250 g/ha [11] | pest or weed control at 15.625 g/ha [12] | pest or weed control at 62.5 g/ha [12] | pest or weed control at 250 g/ha [12]

Cc1cc(NC(=O)[C@@H]2C(=O)N(C)C[C@H]2c2ccc(C(F)(F)F)cc2)on1 (racemic) [Compound 1579]
0%: plant injury at 15.625 g/ha (corn (Zea mays) [1]) | plant injury at 62.5 g/ha (corn (Zea mays) [1]) | plant injury at 250 g/ha (corn (Zea mays) [1]) | pest or weed control at 15.625 g/ha [2] | pest or weed control at 62.5 g/ha [2] | pest or weed control at 250 g/ha [2] | pest or weed control at 15.625 g/ha [3] | pest or weed control at 62.5 g/ha [3] | pest or weed control at 250 g/ha [3] | pest or weed control at 15.625 g/ha [4] | pest or weed control at 62.5 g/ha [4] | pest or weed control at 250 g/ha [4] | pest or weed control at 15.625 g/ha [5] | pest or weed control at 62.5 g/ha [5] | pest or weed control at 250 g/ha [5] | pest or weed control at 15.625 g/ha [6] | pest or weed control at 62.5 g/ha [6] | pest or weed control at 250 g/ha [6] | plant injury at 15.625 g/ha (corn (Zea mays) [7]) | plant injury at 62.5 g/ha (corn (Zea mays) [7]) | plant injury at 250 g/ha (corn (Zea mays) [7]) | pest or weed control at 15.625 g/ha [8] | pest or weed control at 62.5 g/ha [8] | pest or weed control at 250 g/ha [8] | pest or weed control at 15.625 g/ha [9] | pest or weed control at 15.625 g/ha [10] | pest or weed control at 62.5 g/ha [10] | pest or weed control at 250 g/ha [10] | pest or weed control at 15.625 g/ha [11] | pest or weed control at 62.5 g/ha [11] | pest or weed control at 250 g/ha [11] | pest or weed control at 15.625 g/ha [12] | pest or weed control at 62.5 g/ha [12] | pest or weed control at 250 g/ha [12]
10%: pest or weed control at 62.5 g/ha [9] | pest or weed control at 250 g/ha [9]
